# In US9562044B2, “2-acylaminothiazole derivative or salt thereof” (ASTELLAS PHARMA INC., priority 2013, dated 2017):
# Counter-ions that a name gives are not always drawn.
# Key:
# [1] = tested on: intravesical pressure in anesthetized rats; assay: Pelvic nerve electrical stimulation-induced elevation of intravesical pressure in anesthetized rats; format: in vivo, rat; conditions: 3 mg/kg intravenous; maximum effect during 1 hour after administration; pre-treatment AUC = 100%; SD female rats
# Experimental: Effect on Pelvic Nerve Electrical Stimulation-Induced Elevation of Intravesical Pressure in Anesthetized Rats
# As an effect on the nerve stimulation-dependent bladder contraction in vivo, the effect of the Example compound of the present invention in the pelvic nerve electrical stimulation-induced elevation of the intravesical pressure in rats was measured by the following method. That is, using SD female rats (Japan SLC, Inc.), the lower abdomen was incised in the midline under anesthesia with pentobarbital (50 mg/kg ip). The ureter on both sides was ligated and cut, and then a cannula for measuring the intravesical pressure (PE-50) was inserted into the bladder from the external urethral orifice and fixed by a clip. About 200 μL of physiological saline was injected through the cannula inserted into the bladder, the other side was then connected to a pressure transducer, and the intravesical pressure was measured. Under observation using a stereomicroscope, the pelvic nerve near the bladder was isolated and an electrode (Unique Medical) for nerve stimulation was placed. The abdominal cavity was filled with mineral oil (MP BIOMEDICALS). […] After the elevation of the intravesical pressure by electrical stimulation was stabilized three times or more, the test substance (dose of 3 mg/kg) was administered at a volume of 1 mL/kg from a catheter placed in the vein and the effect of the test substance on the elevation of the intravesical pressure was measured for 1 hour. […]
# The responses were put into a personal computer through PowerLab (registered trademark) (AD Instruments), and analyzed with LabChart (registered trademark). The AUC of each elevation of the intravesical pressure was calculated. The average value of three values before the treatment with the test substance was set to 100%, and the elevation rate of the intravesical pressure (% of pre) after the treatment with the test substance was calculated. […]
# isolated rat bladder = assay: Transmural electrical field stimulation-induced contraction of isolated rat bladder; conditions: AUC of contractile response, value before treatment = 100%, SD female rat bladder strip, read-out: Enhancement rate of isolated bladder contraction (% of pre)
# Experimental: Effects on Transmural Electrical Field Stimulation-Induced Contraction of Isolated Rat Bladder
# As an effect on the nerve stimulation-dependent bladder contraction in vitro, the effect of the Example compound of the present invention in the transmural electrical field stimulation-induced contraction of isolated rat bladder was measured by the following method. That is, from the bladder isolated from a Spraque-Dawley (SD) female rat (Japan SLC, Inc.), a longitudinal bladder strip having a width of about 2 mm and a length of about 10 mm was prepared. The prepared bladder strip was suspended in an organ bath filled with 10 mL of a Krebs-Henseleit solution. The Krebs-Henseleit solution was bubbled with 95% O2 and 5% CO2, and kept at 37° C. After stabilization at an initial tension of 1 g, contraction was induced twice with 60 mM KCl. The strip was washed with the Krebs-Henseleit solution and stabilized, and then contraction was induced with transmural electrical field stimulation at 20 V (stimulation frequency of 8 Hz, pulse width of 0.3 msec, and stimulation time of 10 seconds) by an electrical stimulation device (Nihon Kohden Corporation). At an interval of 2 minutes, transmural electrical field stimulation was repeated and the voltage was adjusted to make the contractile amplitude about 50% of the contractile response by 20 V. After stabilization of the contraction by the transmural electrical field stimulation, 10 μL of the test substance (final concentrations of 3 μM, 10 μM, and 30 μM), which had been dissolved in 100% dimethylsulfoxide in advance was added. The test substance was cumulatively administered at the next concentration after the contractile response at a lower concentration had been stabilized. The responses were put into a personal computer through PowerLab (registered trademark) (AD Instruments), and analyzed with LabChart (registered trademark) (AD Instruments). The area under the response of each contractile response (area under curve, AUC) was calculated and the value before the treatment with the test substance was set to 100%. Based on this, the enhancement rate of the isolated bladder contraction (% of pre) after the treatment with the test substance was calculated.
# The enhancement rates of the isolated bladder contraction due to several 10 μM Example compounds which are the compounds of the formula (I) are shown in Table 2.
compound,measurement,setting,value
"C[C@@H]1CCCN1Cc1sc(NC(=O)c2cnc(N3CCC(C(=O)O)CC3)cn2)nc1-c1cc(Cl)cs1 [Example 4, 1-(5-{[4-(4-chloro-2-thienyl)-5-{[(2R)-2-methylpyrrolidin-1-yl]methyl}-1,3-thiazol-2-yl]carbamoyl}pyrazin-2-yl)piperidine-4-carboxylic acid dihydrochloride]",Elevation rate of intravesical pressure (% of pre),[1],184 % of pre
same,activity at 10 µM,isolated rat bladder,180%
CC[C@@H]1CCCN1Cc1sc(NC(=O)c2cnc(N3CCC(C(=O)O)CC3)cn2)nc1-c1cc(F)cc(C(F)(F)F)c1 [Example 115],Elevation rate of intravesical pressure (% of pre),[1],131 % of pre
same,activity at 10 µM,isolated rat bladder,121%
CC[C@@H]1CCCN1Cc1sc(NC(=O)c2cnc(N3CCC(C(=O)O)CC3)cn2)nc1-c1ccc(OC)c(C(F)(F)F)c1 [Example 156],Elevation rate of intravesical pressure (% of pre),[1],130 % of pre
same,activity at 10 µM,isolated rat bladder,135%
